Patent US11209437B2, “Fluorescent probe and preparation method and use thereof” (Fluorescence Diagnosis (shanghai) Biotech Company Ltd., priority 2016, dated 2021)

How the values were obtained:
[1] = Viscosity responsiveness: fluorescence emission spectra of probes in glycerol and methanol; assay type: physicochemical; details: for Emission wavelength: excited at maximum excitation wavelength of each probe; for Fluorescence ratio in glycerol to methanol: probe 1×10^−5 M
Experimental: Probes 1 to 98, 101, 103, 105, 107, 109, 111, 114, 117, and 120, and the reference probes 99, 100, 102, 104, 106, 108, 110, 112, 113, 115, 116, 118, 119, 121, BG-CCVJ and BG-Gly-CCVJ were dissolved in dimethyl sulfoxide, respectively, to prepare mother liquors having a concentration of 1×10^−2 M, to each of which glycerol and methanol were added and uniformly mixed, to prepare solutions finally having a concentration of 1×10^−5 M. Depending on the probes, fluorescence emission spectra of the probes were detected successively with the maximum excitation wavelength of each probe under the same conditions, and the results were shown in Table 1.
That is, these probes are sensitive to viscosity changes and have viscosity responsiveness.

[2] = Fluorescence of free probe prior to binding to a protein tag; assay type: physicochemical
Experimental: (§1) Probes were mixed with corresponding protein tags to obtain mixed samples, in which the final probe concentration was 5 μM, and the final protein tag concentration was 10 μM. The mixed samples were incubated 37° C. for 1 hr, fluorescence spectrophotometer was used to detect the change in fluorescence intensity, and the results are shown in Table 1.
(§2) From the quantum yield of probe bound to protein tag, after reacting with the protein tags, the probes of the Examples could be detected to have significant signal enhancement in corresponding excitation transmission channels, the fluorescence activation multiple reached several hundreds to a thousand or more, and the brightness was high, which illustrates that after the probes of the Examples are bound to the protein tags, fluorescence of the probes can be activated, and the probes have good fluorescent molecular switching properties. In contrast, though the fluorescence of the reference probes could also be activated, the quantum yield of activated fluorescence was very low, and the brightness was very poor. In particular, in view of comparison results between probe 98 and reference probe 99, probe 101 and reference probe 102, probe 103 and reference probe 104, probe 105 and reference probe 106, probe 107 and reference probe 108, probe 109 and reference probe 110, probe 111 and reference probe 112, probe 114 and reference probe 115, probe 117 and reference probe 118, probe 120 and reference probe 121 in Table 1, for the same fluorescent dye, when the ligand is connected to the electron donor part of the fluorescent dye, the fluorescence activation brightness of the probe is much higher than the reference probe in which ligand is connected to the electron acceptor part of the fluorescent dye.

SNAP protein tags = target: T1, SNAP protein tags (Homo sapiens, UniProt P16455, A127T/A154D/C150Q/C62A/E30R/G131K/G132T/G153L/K125A/K32I/L33F/M134L/N157G/Q115S/Q116H/R128A/R135S/S151G/S152D/S159E); experiment: Fluorescence activation of probe after incubation with corresponding protein tag (SNAP); assay type: biochemical; details: probe 5 μM, protein tag 10 μM, 37° C., 1 hr
T1 sequence (P16455 1-182 E30R/K32I/L33F/C62A/Q115S/Q116H/K125A/A127T/R128A/G131K/G132T/M134L/R135S/C150Q/S151G/S152D/G153L/A154D/N157G/S159E): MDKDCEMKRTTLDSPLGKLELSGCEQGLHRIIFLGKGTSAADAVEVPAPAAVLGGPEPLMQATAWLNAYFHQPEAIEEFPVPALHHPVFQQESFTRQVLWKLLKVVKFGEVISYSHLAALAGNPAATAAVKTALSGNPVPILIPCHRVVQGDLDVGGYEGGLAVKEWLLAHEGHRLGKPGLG
Experimental: as §1, §2

Row | SMILES | Emission wavelength [1] [nm] | Fluorescence ratio in glycerol to methanol [1] | Quantum yield of free probe [2] | Fluorescence activation multiple (SNAP protein tags) | Quantum yield of probe bound to protein tag (SNAP protein tags)
1 | CC(C)(C)OC(=O)/C(C#N)=C/c1ccc(N(CCOC(=O)NCCCS(=O)(=O)O)CCOC(=O)NCc2ccc(COc3nc(N)nc4[nH]cnc34)cc2)cc1 [probe 11] | 481 | 422 | 0.0013 | 270 | 0.36
2 | COCCOCCOCCOCCOCCN(CCOC(=O)NCc1ccc(COc2nc(N)nc3[nH]cnc23)cc1)c1ccc(/C=C(\C#N)C(=O)OC(C)(C)C)cc1 [probe 12] | 482 | 405 | 0.0012 | 351 | 0.41
3 | CN(CCC(=O)NCc1ccc(COc2nc(N)nc3[nH]cnc23)cc1)c1ccc(/C=C(\C#N)C(=O)OC(C)(C)C)cc1 [probe 13] | 483 | 391 | <0.001 | 315 | 0.29
4 | CN1C(=O)/C(=C/c2ccc(N(C)CCOC(=O)NCc3ccc(COc4nc(N)nc5[nH]cnc45)cc3)cc2)N=C1c1ccccc1 [probe 14] | 531 | 560 | <0.001 | 771 | 0.18
5 | CN1C(=O)/C(=C/c2ccc(N(C)CCOC(=O)NCc3ccc(COc4cc(Cl)nc(N)n4)cc3)cc2)N=C1/C=C/c1ccccc1 [probe 16] | 580 | 311 | <0.001 | 359 | 0.21
6 | CN(CCOC(=O)NCc1ccc(COc2nc(N)nc3[nH]cnc23)cc1)c1ccc(C2=C(C#N)C(=C(C#N)C#N)OC2(C)C)cc1 [probe 18] | 535 | 301 | 0.0017 | 265 | 0.45
7 | CN(CCOC(=O)NCc1ccc(COc2cc(Cl)nc(N)n2)cc1)c1ccc(C2=C(C#N)C(=C(C#N)C#N)OC2(C)C)cc1 [probe 19] | 535 | 299 | 0.0012 | 361 | 0.45
8 | CN(CCOC(=O)NCc1ccc(COc2nc(N)nc3[nH]cnc23)cc1)c1cc2sc(/C=C(\C#N)c3nc4ccccc4o3)cc2s1 [probe 22] | 590 | 1821 | <0.001 | 610 | 0.36
9 | CN(CCOC(=O)NCc1ccc(COc2nc(N)nc3[nH]cnc23)cc1)c1cc2sc(/C=C(\C#N)c3nc4ccccc4s3)cc2s1 [probe 23] | 610 | 1235 | <0.001 | 712 | 0.42
10 | CN(CCOC(=O)NCc1ccc(COc2cc(Cl)nc(N)n2)cc1)c1cc2sc(/C=C(\C#N)C(=O)OC(C)(C)C)cc2s1 [probe 24] | 555 | 1681 | <0.001 | 590 | 0.48
11 | CN(CCOC(=O)NCc1ccc(COc2cc(Cl)nc(N)n2)cc1)c1cc2sc(/C=C(\C#N)c3nc4ccccc4o3)cc2s1 [probe 25] | 590 | 1621 | <0.001 | 670 | 0.36

The remaining lines, values ahead:

Row | Emission wavelength [1] [nm] | Fluorescence ratio in glycerol to methanol [1] | Quantum yield of free probe [2] | Fluorescence activation multiple (SNAP protein tags) | Quantum yield of probe bound to protein tag (SNAP protein tags) | SMILES
12 | 610 | 1123 | <0.001 | 910 | 0.42 | CN(CCOC(=O)NCc1ccc(COc2cc(Cl)nc(N)n2)cc1)c1cc2sc(/C=C(\C#N)c3nc4ccccc4s3)cc2s1 [probe 26]
13 | 607 | 1135 | <0.001 | 421 | 0.41 | CN(CCOC(=O)NCc1ccc(COc2nc(N)nc3[nH]cnc23)cc1)c1ccc2cc(/C=C(\C#N)c3nc4ccccc4o3)sc2c1 [probe 31]
14 | 609 | 997 | <0.001 | 638 | 0.46 | CN(CCOC(=O)NCc1ccc(COc2nc(N)nc3[nH]cnc23)cc1)c1ccc2cc(/C=C(\C#N)c3nc4ccccc4s3)sc2c1 [probe 32]
15 | 570 | 1781 | <0.001 | 957 | 0.55 | CN(CCOC(=O)NCc1ccc(COc2cc(Cl)nc(N)n2)cc1)c1ccc2cc(/C=C(\C#N)C(=O)OC(C)(C)C)sc2c1 [probe 33]
16 | 570 | 1258 | 0.001 | 488 | 0.50 | CC(C)(C)OC(=O)/C(C#N)=C/c1cc2ccc(N(CCC#N)CCOC(=O)NCc3ccc(COc4nc(N)nc5[nH]cnc45)cc3)cc2s1 [probe 36]
17 | 570 | 1135 | 0.0012 | 469 | 0.56 | CC(C)(C)OC(=O)/C(C#N)=C/c1cc2ccc(N(CCO)CCOC(=O)NCc3ccc(COc4nc(N)nc5[nH]cnc45)cc3)cc2s1 [probe 37]
18 | 570 | 892 | 0.0016 | 335 | 0.55 | CC(C)(C)OC(=O)/C(C#N)=C/c1cc2ccc(N(CCOC(=O)NCCCS(=O)(=O)O)CCOC(=O)NCc3ccc(COc4nc(N)nc5[nH]cnc45)cc3)cc2s1 [probe 39]
19 | 570 | 759 | 0.001 | 421 | 0.41 | CN(CCOC(=O)NCc1ccc(COc2nc(N)nc3[nH]cnc23)cc1)c1ccc2cc(/C=C(\C#N)C(=O)OC(C)(C)C)sc2c1 [probe 40]
20 | 575 | 101 | 0.0015 | 212 | 0.31 | CC1=N/C(=C/c2cc3ccc(N(C)CCOC(=O)NCc4ccc(COc5nc(N)nc6[nH]cnc56)cc4)cc3s2)C(=O)N1C [probe 41]
21 | 600 | 178 | 0.0013 | 298 | 0.38 | CN1C(=O)/C(=C\c2cc3ccc(N(C)CCOC(=O)NCc4ccc(COc5nc(N)nc6[nH]cnc56)cc4)cc3s2)N=C1c1ccccc1 [probe 42]
22 | 602 | 1028 | <0.001 | 982 | 0.37 | CN(CCOC(=O)NCc1ccc(COc2nc(N)nc3[nH]cnc23)cc1)c1ccc2nc(/C=C(\C#N)C(=O)OC(C)(C)C)oc2c1 [probe 43]
23 | 603 | 1459 | <0.001 | 1586 | 0.37 | CN(CCOC(=O)NCc1ccc(COc2cc(Cl)nc(N)n2)cc1)c1ccc2nc(/C=C(\C#N)C(=O)OC(C)(C)C)oc2c1 [probe 44]
